Laboratory results as given in the supplement of paper PMC10307832.

Legend:
Experiment in all cases: relative viability (nuclei count vs DMSO), 5 days (fraction); higher = more cells survive
[1] = compound: Cc1ccc(C(=O)Nc2cccc(C(F)(F)F)c2)cc1Nc1cncc(C(N)=O)c1 [ALW-II-49-7] + NC(=O)Nc1cc(-c2cccc(F)c2)sc1C(=O)N[C@H]1CCCNC1 [AZD7762] (partner 0.2 µM)
Outline: (§1)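 Relative viability was taken as the ratio of nuclei in treated wells to nuclei in vehicle wells. Lung cancer cell lines in 1536-well plates received compounds by pin tool one day after seeding, either one drug alone or a fixed anchor-drug dose plus five library-drug doses (not always all listed) in √10 steps. Nuclei were counted on 4× images after 5 days of treatment, and values are medians of duplicate plates.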

[2] = compound: Cc1ccc(C(=O)Nc2cccc(C(F)(F)F)c2)cc1Nc1cncc(C(N)=O)c1 [ALW-II-49-7] + Nc1ncn([C@H]2C[C@H](O)[C@@H](CO)O2)c(=O)n1 [Decitabine] (partner 2 µM)
Outline: as §1

[3] = compound: Cc1ccc(C(=O)Nc2cccc(C(F)(F)F)c2)cc1Nc1cncc(C(N)=O)c1 [ALW-II-49-7] + CC(C)C[C@H](NC(=O)[C@H](Cc1ccccc1)NC(=O)c1cnccn1)B(O)O [Bortezomib] (partner 0.002 µM)
Outline: as §1

[4] = compound: Cc1ccc(C(=O)Nc2cccc(C(F)(F)F)c2)cc1Nc1cncc(C(N)=O)c1 [ALW-II-49-7] + CCNC(=O)c1noc(-c2cc(C(C)C)c(O)cc2O)c1-c1ccc(CN2CCOCC2)cc1 [Luminespib] (partner 0.01 µM)
Outline: as §1

Row | Cell Line | relative viability ([1]; first compound 0.08 µM) | relative viability ([1]; first compound 0.253 µM) | relative viability ([1]; first compound 0.8 µM) | relative viability ([1]; first compound 2.53 µM) | relative viability ([1]; first compound 8 µM) | relative viability ([2]; first compound 0.08 µM) | relative viability ([2]; first compound 0.253 µM) | relative viability ([2]; first compound 0.8 µM) | relative viability ([2]; first compound 2.53 µM) | relative viability ([2]; first compound 8 µM) | relative viability ([3]; first compound 0.08 µM) | relative viability ([3]; first compound 0.253 µM) | relative viability ([3]; first compound 0.8 µM) | relative viability ([3]; first compound 2.53 µM) | relative viability ([3]; first compound 8 µM) | relative viability ([4]; first compound 0.08 µM) | relative viability ([4]; first compound 0.253 µM) | relative viability ([4]; first compound 0.8 µM) | relative viability ([4]; first compound 2.53 µM) | relative viability ([4]; first compound 8 µM)
1 | NCI-H2347 | 1.02 | 0.727 | 0.606 | 0.676 | 0.638 | 0.714 | 0.647 | 0.57 | 0.718 | 0.681 | 0.539 | 1.28 | 1.08 | 0.23 | 0.566 | 0.241 | 0.483 | 0.363 | 0.324 | 0.512
2 | NCI-H2087 | 1.52 | 1.46 | 1.18 | 1.14 | 1.11 | 0.244 | 0.254 | 0.212 | 0.311 | 0.203 | 0.759 | 0.959 | 0.824 | 0.846 | 0.857 | 0.142 | 0.166 | 0.197 | 0.171 | 0.171
3 | EPLC-272H | 0.169 | 0.251 | 0.278 | 0.248 | 0.198 | 0.326 | 0.381 | 0.329 | 0.373 | 0.295 | 0.806 | 0.839 | 0.934 | 1.05 | 0.751 | 0.218 |  | 0.324 | 0.312 | 0.276
4 | LXF-289 | 1.08 | 1.11 | 0.981 | 1.26 | 1.22 | 0.391 | 0.372 | 0.411 | 0.407 | 0.443 | 0.973 | 0.965 | 1.02 | 1.1 | 1.04 | 0.731 | 0.626 | 0.825 | 0.688 | 0.848
5 | RERF-LC-KJ | 1.15 | 0.995 | 0.827 | 0.975 | 0.956 | 0.694 | 0.783 | 0.729 | 0.732 | 0.611 | 0.861 | 1.36 | 1.06 | 0.813 | 1.14 | 1.56 | 1.18 | 1.68 | 1.39 | 1.15
6 | NCI-H1755 | 0.543 | 0.497 | 0.379 | 0.432 | 0.382 | 0.66 | 0.726 | 0.719 | 0.756 | 0.719 | 0.963 | 1.04 | 0.963 | 0.923 | 0.849 | 0.341 | 0.497 | 0.421 | 0.283 | 0.268
7 | PC-14 | 0.445 | 0.318 | 0.447 |  | 0.236 | 0.247 | 0.22 | 0.218 | 0.266 | 0.222 | 0.88 | 0.872 | 0.83 | 0.758 | 0.857 | 0.191 | 0.161 | 0.119 |  | 0.125
8 | NCI-H322M | 0.557 | 0.584 | 0.484 | 0.698 | 0.481 | 0.618 | 0.774 | 0.637 | 0.756 | 0.671 | 1.09 | 1.36 | 1.43 | 1.32 | 1.26 | 0.897 | 0.762 | 0.965 | 0.868 | 0.833
9 | NCI-H1666 | 0.858 | 0.855 | 0.822 | 0.839 | 0.77 | 0.751 | 0.735 | 0.735 | 0.898 | 0.714 | 0.663 | 0.79 | 0.87 | 1.04 | 0.928 | 0.951 | 0.999 | 1.04 | 1.12 | 1
10 | A-427 | 0.714 | 0.814 | 0.634 | 0.759 | 0.482 | 0.531 | 0.585 | 0.616 | 0.612 | 0.655 | 1.1 | 0.95 | 0.967 | 1.02 | 1.05 | 0.728 | 0.736 | 0.875 |  | 0.769
11 | NCI-H1651 | 0.465 | 0.466 | 0.474 | 0.397 | 0.317 | 0.637 | 0.669 | 0.606 | 0.604 | 0.51 | 1.06 | 0.976 | 1.04 | 0.933 | 0.936 | 0.637 | 0.802 | 0.801 | 0.644 | 0.876
12 | 201T | 0.661 | 0.604 | 0.745 | 0.574 | 0.552 | 0.832 | 0.84 | 0.872 | 0.846 | 0.904 | 1.1 | 1.13 | 1.09 | 1.08 | 1.06 | 1.06 | 0.907 | 1.07 | 0.993 | 1.09
13 | NCI-H460 | 0.567 | 0.863 | 0.663 | 0.665 | 0.456 | 0.5 | 0.488 | 0.513 | 0.408 | 0.492 | 0.869 | 1.04 | 1.04 | 0.956 | 1.05 | 0.0293 | 0.0319 | 0.0397 | 0.0303 | 0.0275
14 | NCI-H596 | 1.15 | 1.23 | 1.12 | 1.14 | 1.24 | 0.884 | 1.23 | 1.1 | 1.12 | 1.05 | 0.672 | 0.99 | 1.18 | 1 | 0.953 | 0.929 | 0.943 | 1.18 | 1.1 | 1.12
15 | HARA | 0.325 | 0.28 | 0.3 | 0.375 | 0.347 | 0.689 | 0.47 | 0.497 | 0.52 | 0.663 | 1.06 | 1.17 | 0.994 | 1.22 | 1.26 | 0.465 | 0.655 | 0.545 | 0.833 | 1.17
16 | NCI-H2126 | 0.981 | 1.05 | 0.913 | 1 | 0.984 | 0.604 | 0.562 | 0.545 | 0.587 | 0.592 | 1.09 | 1.17 | 1.2 | 1.08 | 1.17 | 0.938 | 0.932 | 0.855 | 0.803 | 0.868
17 | HCC-827 | 0.208 | 0.241 | 0.187 | 0.183 | 0.19 | 0.294 | 0.307 | 0.335 | 0.331 | 0.271 | 1.13 | 1.03 | 1.03 | 1.1 | 1.03 | 0.795 | 0.587 | 0.678 | 0.683 | 1.76
18 | ABC-1 | 0.914 | 0.563 | 0.915 |  | 0.668 | 1.02 | 1.11 | 1.01 | 1.35 | 0.947 | 0.414 | 0.34 | 0.31 | 0.318 | 0.287 | 0.472 | 0.535 | 0.718 | 0.355 | 0.496
19 | NCI-H650 | 1.02 | 0.967 | 1.05 | 0.866 | 0.678 | 0.333 | 0.334 | 0.314 | 0.306 | 0.321 | 0.649 | 0.906 | 0.913 | 0.88 | 0.663 | 0.853 | 0.972 | 0.632 | 0.722 | 0.526
20 | BEN | 0.723 | 0.769 | 0.666 | 0.799 | 0.765 | 0.693 | 0.751 | 0.776 | 0.728 | 0.656 | 0.851 | 0.828 | 0.789 |  | 0.875 | 0.682 | 0.458 | 0.509 | 0.521 | 0.24
21 | ChaGo-K-1 | 0.94 | 0.996 | 0.882 | 0.768 | 0.807 | 0.541 | 0.472 | 0.526 | 0.537 | 0.546 | 0.769 | 1.23 | 1.1 | 1.18 | 0.864 | 0.529 | 0.664 | 0.544 | 0.444 | 0.438
22 | NCI-H23 | 0.163 | 0.263 | 0.147 | 0.227 | 0.224 | 0.311 | 0.286 | 0.303 | 0.328 | 0.333 | 1.12 | 0.807 | 1.03 | 1.12 | 1.02 | 0.188 | 0.22 | 0.228 |  | 0.191
23 | NCI-H1975 | 0.743 | 0.815 | 0.673 |  | 0.589 | 0.43 | 0.375 | 0.319 | 0.375 | 0.388 | 0.274 | 0.485 | 0.333 | 0.338 | 0.319 | 0.431 | 0.165 | 0.235 | 0.292 | 0.198
24 | EKVX | 0.665 | 0.619 | 0.821 | 0.574 | 0.646 | 0.513 | 0.321 | 0.327 | 0.318 | 0.408 | 1.08 | 0.919 | 0.835 | 0.424 | 1.04 | 0.679 | 0.812 | 0.825 | 0.903 | 0.803
25 | NCI-H838 | 0.921 | 1.04 | 0.889 | 0.702 | 0.886 | 0.413 | 0.433 | 0.483 | 0.447 | 0.48 | 0.71 | 0.839 | 0.721 | 0.64 | 1.05 | 0.233 | 0.257 | 0.344 | 0.272 | 0.211
26 | NCI-H2085 | 0.987 | 1.06 | 0.988 | 1.06 | 0.834 | 0.515 | 0.537 | 0.48 | 0.523 | 0.55 | 0.989 | 1 | 1.13 | 1.16 | 0.969 | 0.405 | 0.465 | 0.445 | 0.4 | 0.44
